US7531655B2, “Large conductance calcium-activated K channel opener” (Mitsubishi Tanabe Pharma Corporation, priority 2002, dated 2009)

How the values were obtained:
[1] = system: isolated rabbit urinary bladder; experiment: Relaxation effect on potassium-induced contraction of isolated rabbit urinary bladder; format: cell-based; conditions: Oryctolagus cuniculus, read-out: IC50 value (50% relaxation concentration)
Description: Relaxation Effect on Potassium-Induced Contraction of Isolated Rabbit Urinary Bladder
Urinary bladder was isolated from Male NZW rabbits (body weight: 2.0-3.5 kg) and immersed in ice-cold Krebs-bicarbonate solution (in mM: 118 NaCl, 4.7 KCl, 2.55 CaCl2, 1.18 MgSO4, 1.18 KH2PO4, 24.88 NaHCO3 and 11.1 glucose). The urinary bladder was cut into longitudinal strips (5 mm length 3-4 mm width) after mucosal layer was removed.
Preparations were mounted in organ baths containing 10 ml of Krebs solution maintained at 37° C. and gassed with 95% O2/5% CO2. Accordingly, preparations were stretched with an initial tension of 2.0±1.0 g, and changes in isometric tension were measured by force-displacement transducer. The preparations were pre-contracted by changing organ-bath solution into high-K^+ (30 mM) Krebs solution (in mM: 118 NaCl, […], 2.55 CaCl2, 1.18 MgSO4, 1.18 KH2PO4, 24.88 NaHCO3 and 11.1 glucose).
After stable tension was obtained, compounds were added into organ baths cumulatively (10^−8 M-10^−4 M). The effects of compounds were expressed as a percentage of the maximum relaxation produced by 10^−4 M papaverine as 100%. 50% relaxation concentration (IC50) was calculated and IC50 value range (μM) of compounds of the present invention was shown in the following Table 1 with a rank of A, B or C. These ranges are as mentioned below. • 3 μM≧C>1 μM≧B>0.5 μM≧A

[2] = system: rhythmic bladder contractions induced by substance P; experiment: Inhibitory effect on the rhythmic bladder contractions induced by substance P in anesthetized rats; format: in vivo, rat; conditions: 0.25 mg/kg intravenous; time during which frequency of rhythmic contraction was completely inhibited; urethane-anesthetized Sprague-Dawley female rats
Description: Inhibitory Effect on the Rhythmic Bladder Contractions Induced by Substance P in Anesthetized Rats For the experiments, Sprague-Dawley female rats (9 to 12 weeks old) weighing between 200 to 300 g were used. After urethane anesthetization (subcutaneously administered with a dose of 1.2 g/kg), cannulae were placed in both right and left femoral veins. One intravenous catheter was used for administration of compounds, and the other was for the substance P (0.33 μg/kg/min) infusion. We also cannulated into ureter to pass urine. Polyethylene catheters were inserted into carotid artery for continuous monitoring of arterial blood pressure and heart rate. For continuous infusion, transurethral bladder catheter was inserted into the bladder through the urethra and tied in place by a ligature around the urethral orifice. One end of the catheter was attached to a pressure transducer in order to measure intravesical pressure. The other end of the catheter was used for infusion of saline into the bladder. After stabilization of blood pressure and heart rate and after the bladder was emptied, cystometry was performed by filling the bladder slowly with about 0.6 ml of saline. After about 10 minutes, intravenous infusion of substance P (0.33 μg/kg/min) was started for stabilization of the micturition reflex. […]

Row | SMILES | IC50 [1] | 100% inhibiting time [2]
1 | O=C([O-])Cc1sc(-c2ccccc2)cc1-c1ccc(Cl)s1.[Na+] [3 (Compound 6)] | 500 to 1000 nM | 27.1 min
2 | O=C([O-])Cc1oc(-c2ccccc2)cc1-c1ccc(Cl)s1.[Na+] [2 (Compound 6)] | < 500 nM | 13.1 min
